These results are taken from patent publication US20160143867A1, “METHODS AND PHARMACEUTICAL COMPOSITIONS FOR TREATING CANCER” (INSERM (INSTITUT NATIONAL DE LA SANTÉ ET DE LA RECHERCHE …, priority 2013, published 2016).

The data set relates to glioma-initiating cells (GICs). As to the kind of experiment: Cell survival of GICs exposed to GHB. The following applies: exposure of GICs to GHB.

Regarding `O=C(O)CCCO` [GHB, gamma-hydroxybutyrate], the cell survival result is “without affecting cell survival”.
